Assay results taken from ChEMBL document CHEMBL4507268 (2021).

Assays:
Details in all cases: Compound concentration 1000.0 nM
[1] = molecular target: T1, Bone morphogenetic protein receptor type-2 (Homo sapiens) (UniProt Q13873)
T1 sequence (whole entry): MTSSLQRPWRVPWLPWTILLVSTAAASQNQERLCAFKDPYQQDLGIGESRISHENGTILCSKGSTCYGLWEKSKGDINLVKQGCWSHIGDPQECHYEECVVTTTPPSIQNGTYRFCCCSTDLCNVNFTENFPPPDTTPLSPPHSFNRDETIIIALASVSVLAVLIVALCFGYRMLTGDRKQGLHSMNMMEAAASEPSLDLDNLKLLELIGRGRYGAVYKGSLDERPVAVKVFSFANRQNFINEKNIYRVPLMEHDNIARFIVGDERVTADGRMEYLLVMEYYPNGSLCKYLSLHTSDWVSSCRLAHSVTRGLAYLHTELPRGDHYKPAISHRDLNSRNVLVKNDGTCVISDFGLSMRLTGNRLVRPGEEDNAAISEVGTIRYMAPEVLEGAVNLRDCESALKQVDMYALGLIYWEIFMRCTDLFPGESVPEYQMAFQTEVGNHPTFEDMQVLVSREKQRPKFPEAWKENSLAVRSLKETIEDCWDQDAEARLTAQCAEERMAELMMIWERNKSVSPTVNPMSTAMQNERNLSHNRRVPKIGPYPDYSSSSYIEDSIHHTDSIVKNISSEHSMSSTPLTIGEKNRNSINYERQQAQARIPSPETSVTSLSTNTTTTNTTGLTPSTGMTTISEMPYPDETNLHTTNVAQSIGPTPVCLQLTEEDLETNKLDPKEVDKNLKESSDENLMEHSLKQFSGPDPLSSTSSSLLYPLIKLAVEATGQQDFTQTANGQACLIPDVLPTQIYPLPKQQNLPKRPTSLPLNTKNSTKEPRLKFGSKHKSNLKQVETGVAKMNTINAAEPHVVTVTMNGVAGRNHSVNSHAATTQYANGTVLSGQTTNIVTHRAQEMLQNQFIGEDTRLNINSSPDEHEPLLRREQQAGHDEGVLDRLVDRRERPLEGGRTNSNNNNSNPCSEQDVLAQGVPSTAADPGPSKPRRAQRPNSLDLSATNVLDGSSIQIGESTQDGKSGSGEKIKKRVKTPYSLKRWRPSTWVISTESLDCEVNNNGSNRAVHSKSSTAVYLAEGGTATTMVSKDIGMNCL

[2] = molecular target: Cyclin-dependent kinase 4 (Homo sapiens) (UniProt P11802)
Sequence of Cyclin-dependent kinase 4 (Homo sapiens) (P11802 whole entry): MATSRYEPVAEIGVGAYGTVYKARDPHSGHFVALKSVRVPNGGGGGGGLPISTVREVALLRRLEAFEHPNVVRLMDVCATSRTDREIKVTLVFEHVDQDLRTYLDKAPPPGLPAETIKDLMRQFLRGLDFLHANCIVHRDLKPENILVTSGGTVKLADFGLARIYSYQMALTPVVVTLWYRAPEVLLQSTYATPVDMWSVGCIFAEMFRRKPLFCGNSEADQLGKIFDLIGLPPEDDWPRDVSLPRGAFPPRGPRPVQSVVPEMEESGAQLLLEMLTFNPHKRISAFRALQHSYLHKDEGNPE

[3] = molecular target: Serine/threonine-protein kinase MRCK gamma (Homo sapiens) (UniProt Q6DT37)
Sequence of Serine/threonine-protein kinase MRCK gamma (Homo sapiens) (Q6DT37 whole entry): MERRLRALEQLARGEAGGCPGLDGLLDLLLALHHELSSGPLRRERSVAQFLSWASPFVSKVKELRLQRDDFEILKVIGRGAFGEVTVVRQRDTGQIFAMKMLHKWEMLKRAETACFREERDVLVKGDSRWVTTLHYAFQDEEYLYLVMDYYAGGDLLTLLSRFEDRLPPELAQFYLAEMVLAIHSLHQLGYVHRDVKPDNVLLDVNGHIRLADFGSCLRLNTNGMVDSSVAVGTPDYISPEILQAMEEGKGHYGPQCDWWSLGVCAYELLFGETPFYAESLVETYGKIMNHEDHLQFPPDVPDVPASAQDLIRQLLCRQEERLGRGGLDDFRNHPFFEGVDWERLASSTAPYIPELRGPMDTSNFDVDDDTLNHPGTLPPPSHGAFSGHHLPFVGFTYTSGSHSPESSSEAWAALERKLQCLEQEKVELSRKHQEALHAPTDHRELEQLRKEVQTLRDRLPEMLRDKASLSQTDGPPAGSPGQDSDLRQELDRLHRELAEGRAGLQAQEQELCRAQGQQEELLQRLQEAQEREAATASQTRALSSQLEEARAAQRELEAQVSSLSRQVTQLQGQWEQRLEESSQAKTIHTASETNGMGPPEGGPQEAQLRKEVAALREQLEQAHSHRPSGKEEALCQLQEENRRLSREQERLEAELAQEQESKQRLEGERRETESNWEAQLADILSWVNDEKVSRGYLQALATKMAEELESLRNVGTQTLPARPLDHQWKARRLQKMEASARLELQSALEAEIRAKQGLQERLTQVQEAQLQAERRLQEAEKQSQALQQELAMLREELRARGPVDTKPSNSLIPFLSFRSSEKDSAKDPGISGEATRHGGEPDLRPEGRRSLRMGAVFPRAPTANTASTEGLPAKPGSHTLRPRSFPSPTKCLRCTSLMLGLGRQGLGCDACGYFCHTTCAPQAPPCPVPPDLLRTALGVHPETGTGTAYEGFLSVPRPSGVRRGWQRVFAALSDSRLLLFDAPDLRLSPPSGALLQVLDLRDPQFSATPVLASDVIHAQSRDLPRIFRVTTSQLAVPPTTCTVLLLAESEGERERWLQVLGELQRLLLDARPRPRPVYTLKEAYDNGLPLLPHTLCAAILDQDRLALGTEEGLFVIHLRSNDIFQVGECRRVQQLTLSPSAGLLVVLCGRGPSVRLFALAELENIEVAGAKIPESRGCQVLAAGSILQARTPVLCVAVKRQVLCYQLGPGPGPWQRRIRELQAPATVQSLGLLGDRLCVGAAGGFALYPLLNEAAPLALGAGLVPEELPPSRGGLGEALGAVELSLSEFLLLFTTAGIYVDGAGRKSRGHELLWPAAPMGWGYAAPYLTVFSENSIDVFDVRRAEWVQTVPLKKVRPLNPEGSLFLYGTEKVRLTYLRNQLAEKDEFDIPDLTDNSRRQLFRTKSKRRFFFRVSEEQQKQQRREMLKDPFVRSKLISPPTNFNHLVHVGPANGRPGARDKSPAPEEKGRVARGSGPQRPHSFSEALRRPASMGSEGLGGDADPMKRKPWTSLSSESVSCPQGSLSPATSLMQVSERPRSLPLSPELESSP

[4] = molecular target: Receptor tyrosine-protein kinase erbB-3 (Homo sapiens) (UniProt P21860)
[5] = molecular target: Mitogen-activated protein kinase 6 (Homo sapiens) (UniProt Q16659)
Sequence of Mitogen-activated protein kinase 6 (Homo sapiens) (Q16659 whole entry): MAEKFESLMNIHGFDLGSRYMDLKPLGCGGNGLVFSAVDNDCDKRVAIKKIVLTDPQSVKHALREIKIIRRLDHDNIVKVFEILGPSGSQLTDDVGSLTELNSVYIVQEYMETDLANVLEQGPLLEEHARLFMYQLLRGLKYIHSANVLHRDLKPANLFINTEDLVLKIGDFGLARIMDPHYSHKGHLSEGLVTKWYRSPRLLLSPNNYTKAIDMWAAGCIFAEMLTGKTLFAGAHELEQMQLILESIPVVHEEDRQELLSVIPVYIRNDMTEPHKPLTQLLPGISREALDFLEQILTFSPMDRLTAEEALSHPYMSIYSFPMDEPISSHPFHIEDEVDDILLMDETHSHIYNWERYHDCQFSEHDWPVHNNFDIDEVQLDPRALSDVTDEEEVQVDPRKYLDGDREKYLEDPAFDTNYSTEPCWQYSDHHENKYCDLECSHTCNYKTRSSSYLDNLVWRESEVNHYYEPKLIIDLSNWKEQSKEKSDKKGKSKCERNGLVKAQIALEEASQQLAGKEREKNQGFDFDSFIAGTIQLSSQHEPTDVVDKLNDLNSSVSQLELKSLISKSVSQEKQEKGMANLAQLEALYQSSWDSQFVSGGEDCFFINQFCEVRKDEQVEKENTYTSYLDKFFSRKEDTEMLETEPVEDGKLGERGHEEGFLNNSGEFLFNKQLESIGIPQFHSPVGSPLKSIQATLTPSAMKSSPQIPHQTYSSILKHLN

[6] = molecular target: T2, G protein-coupled receptor kinase 3 (Homo sapiens) (UniProt P35626)
T2 sequence (whole entry): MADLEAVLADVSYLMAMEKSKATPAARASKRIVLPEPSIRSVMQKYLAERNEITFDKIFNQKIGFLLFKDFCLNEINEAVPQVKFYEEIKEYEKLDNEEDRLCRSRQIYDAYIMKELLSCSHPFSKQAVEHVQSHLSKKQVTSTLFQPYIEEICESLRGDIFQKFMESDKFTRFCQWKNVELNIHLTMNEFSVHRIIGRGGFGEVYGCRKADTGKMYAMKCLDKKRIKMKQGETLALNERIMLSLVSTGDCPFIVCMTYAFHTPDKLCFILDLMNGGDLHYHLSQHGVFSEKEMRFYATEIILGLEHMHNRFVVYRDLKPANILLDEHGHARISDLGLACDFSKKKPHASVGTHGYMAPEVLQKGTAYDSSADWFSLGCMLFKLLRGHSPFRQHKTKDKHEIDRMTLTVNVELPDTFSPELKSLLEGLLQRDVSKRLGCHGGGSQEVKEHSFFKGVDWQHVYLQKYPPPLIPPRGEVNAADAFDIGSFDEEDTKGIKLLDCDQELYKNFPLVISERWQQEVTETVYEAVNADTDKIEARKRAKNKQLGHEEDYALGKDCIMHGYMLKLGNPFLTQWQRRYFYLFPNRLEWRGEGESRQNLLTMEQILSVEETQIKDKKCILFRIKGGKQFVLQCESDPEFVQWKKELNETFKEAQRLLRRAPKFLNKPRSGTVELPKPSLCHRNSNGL

[7] = molecular target: T3, Serine/threonine-protein kinase STK11 (Homo sapiens) (UniProt Q15831)
T3 sequence (whole entry): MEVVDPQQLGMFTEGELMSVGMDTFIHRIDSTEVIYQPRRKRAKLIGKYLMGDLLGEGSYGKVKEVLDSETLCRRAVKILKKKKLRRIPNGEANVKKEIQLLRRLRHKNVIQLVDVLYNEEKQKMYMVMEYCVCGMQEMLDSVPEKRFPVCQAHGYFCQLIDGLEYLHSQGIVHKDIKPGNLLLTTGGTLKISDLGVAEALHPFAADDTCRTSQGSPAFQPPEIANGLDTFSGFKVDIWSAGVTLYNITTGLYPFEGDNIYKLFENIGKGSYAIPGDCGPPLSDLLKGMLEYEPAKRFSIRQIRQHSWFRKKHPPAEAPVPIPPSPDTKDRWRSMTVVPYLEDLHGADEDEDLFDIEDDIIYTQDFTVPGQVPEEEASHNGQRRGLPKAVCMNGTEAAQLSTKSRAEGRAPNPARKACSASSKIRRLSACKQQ

[8] = test system: Leucine-rich repeat serine/threonine-protein kinase 2 (Homo sapiens), Q5S007 [G2019S]
[9] = molecular target: Protein kinase C eta type (Homo sapiens) (UniProt P24723)
[10] = molecular target: Serine/threonine-protein kinase PRP4 homolog (Homo sapiens) (UniProt Q13523)
Sequence of Serine/threonine-protein kinase PRP4 homolog (Homo sapiens) (Q13523 whole entry): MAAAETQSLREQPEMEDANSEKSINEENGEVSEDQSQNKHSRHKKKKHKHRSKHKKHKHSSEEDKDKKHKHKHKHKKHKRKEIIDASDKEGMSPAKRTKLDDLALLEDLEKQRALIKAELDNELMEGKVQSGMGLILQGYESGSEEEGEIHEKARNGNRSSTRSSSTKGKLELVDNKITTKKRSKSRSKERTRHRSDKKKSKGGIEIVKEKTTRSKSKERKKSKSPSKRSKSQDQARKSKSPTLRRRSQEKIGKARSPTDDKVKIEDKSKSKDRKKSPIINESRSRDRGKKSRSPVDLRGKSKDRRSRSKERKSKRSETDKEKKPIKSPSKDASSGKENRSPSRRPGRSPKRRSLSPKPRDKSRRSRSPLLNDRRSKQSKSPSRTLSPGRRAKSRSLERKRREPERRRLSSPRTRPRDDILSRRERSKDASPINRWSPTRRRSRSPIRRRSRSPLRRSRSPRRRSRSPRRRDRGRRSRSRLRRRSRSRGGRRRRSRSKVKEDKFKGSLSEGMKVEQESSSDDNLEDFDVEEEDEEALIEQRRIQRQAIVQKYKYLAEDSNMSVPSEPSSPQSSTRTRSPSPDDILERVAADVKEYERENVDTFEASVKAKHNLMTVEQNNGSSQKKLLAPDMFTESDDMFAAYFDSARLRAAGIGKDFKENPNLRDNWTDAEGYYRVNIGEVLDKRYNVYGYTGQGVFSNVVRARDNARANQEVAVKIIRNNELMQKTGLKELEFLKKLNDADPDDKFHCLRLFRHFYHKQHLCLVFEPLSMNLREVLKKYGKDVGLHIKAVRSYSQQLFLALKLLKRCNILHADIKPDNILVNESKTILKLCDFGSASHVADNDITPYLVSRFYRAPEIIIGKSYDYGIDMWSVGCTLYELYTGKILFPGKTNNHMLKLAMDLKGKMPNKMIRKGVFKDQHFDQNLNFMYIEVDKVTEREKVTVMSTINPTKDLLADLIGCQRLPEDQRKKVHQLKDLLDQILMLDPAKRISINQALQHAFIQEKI

[11] = molecular target: High affinity nerve growth factor receptor (Homo sapiens) (UniProt P04629)
Sequence of High affinity nerve growth factor receptor (Homo sapiens) (P04629 33-796 limits assumed): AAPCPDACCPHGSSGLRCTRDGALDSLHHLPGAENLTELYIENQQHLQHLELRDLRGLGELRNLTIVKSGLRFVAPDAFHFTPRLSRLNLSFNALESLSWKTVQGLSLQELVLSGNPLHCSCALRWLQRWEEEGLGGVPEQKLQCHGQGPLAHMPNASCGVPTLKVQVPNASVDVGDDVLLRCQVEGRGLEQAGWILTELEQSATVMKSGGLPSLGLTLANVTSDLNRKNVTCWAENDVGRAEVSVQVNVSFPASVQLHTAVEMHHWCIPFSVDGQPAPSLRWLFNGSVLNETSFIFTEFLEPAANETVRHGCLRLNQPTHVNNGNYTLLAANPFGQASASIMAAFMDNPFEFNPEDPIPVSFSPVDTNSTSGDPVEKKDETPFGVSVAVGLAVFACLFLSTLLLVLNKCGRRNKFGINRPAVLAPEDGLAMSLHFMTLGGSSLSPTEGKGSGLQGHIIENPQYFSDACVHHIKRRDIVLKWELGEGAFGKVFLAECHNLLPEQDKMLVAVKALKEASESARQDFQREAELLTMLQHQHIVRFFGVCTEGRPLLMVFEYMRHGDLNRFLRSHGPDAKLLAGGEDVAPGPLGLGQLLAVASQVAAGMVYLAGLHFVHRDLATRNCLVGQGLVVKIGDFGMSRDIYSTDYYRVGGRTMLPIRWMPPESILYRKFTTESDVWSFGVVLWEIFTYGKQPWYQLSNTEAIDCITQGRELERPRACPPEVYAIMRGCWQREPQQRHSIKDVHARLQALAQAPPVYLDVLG

[12] = molecular target: Serine/threonine-protein kinase 32A (Homo sapiens) (UniProt Q8WU08)
Sequence of Serine/threonine-protein kinase 32A (Homo sapiens) (Q8WU08 whole entry): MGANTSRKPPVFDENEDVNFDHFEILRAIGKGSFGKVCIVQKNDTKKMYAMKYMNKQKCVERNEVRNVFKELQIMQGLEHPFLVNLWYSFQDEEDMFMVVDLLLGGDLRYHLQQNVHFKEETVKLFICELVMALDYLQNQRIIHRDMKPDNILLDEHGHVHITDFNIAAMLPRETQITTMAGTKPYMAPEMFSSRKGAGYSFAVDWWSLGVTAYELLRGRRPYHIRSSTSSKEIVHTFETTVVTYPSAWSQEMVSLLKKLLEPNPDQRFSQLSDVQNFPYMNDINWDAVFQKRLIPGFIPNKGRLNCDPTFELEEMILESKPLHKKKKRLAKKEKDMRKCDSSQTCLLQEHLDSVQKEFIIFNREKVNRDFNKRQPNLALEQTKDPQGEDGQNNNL

Measured: residual activity

Cc1nc(C2CCN(C(=O)c3ccc(OC(F)(F)F)cc3N)CC2)c2ncc(N3CCN(C)CC3)cc2n1 [BAY-693]
inactive: [1] 100% | [2] 100% | [3] 100% | [4] 88% | [5] 100% | [6] 93% | [7] 100% | [8] 100% | [9] 88% | [10] 96% | [11] 85% | [12] 86%

CN1CCN(c2cnc3c(C4CCN(C(=O)c5ccc(OC(F)(F)F)cc5N)CC4)ncnc3c2)CC1 [BAY-885]
inactive: [1] 100% | [2] 100% | [3] 100% | [4] 84% | [5] 100% | [6] 89% | [7] 100% | [8] 100% | [9] 86% | [10] 100% | [11] 100% | [12] 94%
